Columns and labels:
[1] = system: termites (Coptotermes formosanus, workers); assay: Termite antifeeding test on treated filter paper (Test Example 2); format: in vivo; details: 10 mg of test compound on filter paper (33 mm in diameter); fifty termites; one week; tests repeated three times
Method: An acetone solution (1 ml) containing 10 mg of the test compound was dropped on filter paper (33 mm in diameter, Milk sediment disk 1026 produced by Toyo Roshi K.K.) and dried at room temperature overnight. The filter paper was set in a white plastic cup (35 mm in diameter) having one hole on side and one hole in bottom, wherein the diameter of the holes are about 3 mm and termites can easily go through the holes. The white plastic cup was put into the 200 ml-volume plastic cup having several holes on the bottom which was covered with gypsum in 2 cm thickness. Fifty termites (Coptotermes formosanus, workers) were put in the 200 ml-volume plastic cup and kept in the container, the bottom of which was filled with wet cotton wool. The container was covered for keeping wet therein. After one week, the filter paper was recovered, dried well at room temperature, and then the weight was measured. The decreasing ratio of the weight was calculated. The tests were repeated three times. For a reference, filter paper treated with only 1 ml of acetone was tested and the decreasing ratio of the weight was calculated in the same manner.

[2] = system: termites (Coptotermes formosanus, workers); assay: Termite antifeeding test on treated Japanese black pine wood (Test Example 1); format: in vivo; details: 100 termites, 3 weeks in the dark
Method: A designated amount (10 mg or 100 mg) of octyl gallate was dissolved in 0.3 ml of acetone and uniformly spread on a piece of Japanese black pine wood (1 cm×1 cm×2 cm) with pipette. The wood was allowed to stand overnight at room temperature, dried at 60° C. in a thermostat for 3 days, and then the weight of the wood was measured. The bottom of a 200 ml-volume plastic cup having several holes on the bottom was covered with gypsum in 2 cm thickness. The wood prepared above and 100 termites (Coptotermes formosanus, workers) were put in the plastic cup and kept in the dark for 3 weeks. For that time, cotton wool containing water was set under the plastic cup, and the gypsum was kept wet through the hole. After 3 weeks, the wood was recovered, dried at 60° C. in a thermostat for 3 days, and then the weight of the wood was measured. The decreasing ratio of the weight was calculated. For a reference, a piece of Japanese black pine wood treated with only 0.3 ml of acetone was tested and the decreasing ratio of the weight was calculated in the same manner.

Row | Compound | The decreasing ratio of the weight (%) [1] | The decreasing ratio of the weight (%) ([2]; 10 mg of octyl gallate on Japanese black pine wood (1 cm×1 cm×2 cm)) | The decreasing ratio of the weight (%) ([2]; 100 mg of octyl gallate on Japanese black pine wood (1 cm×1 cm×2 cm))
1 | CCCCCCCCCCOC(=O)c1cc(O)c(O)c(O)c1 [Decyl gallate, decyl gallate] | 0% | – | –
2 | CCCCCCCCCCCCOC(=O)c1cc(O)c(O)c(O)c1 [Dodecyl gallate] | 1.13% | – | –
3 | CCCCCCCCOC(=O)c1cc(O)c(O)c(O)c1 [octyl gallate, Octyl gallate] | – | 2.4% | 0.9%
